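Assay format: 96-well plates, 48-hour exposure. GI50: concentration for 50% inhibition of growth.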 Calls of active or inactive are those of the source. No stated cut-off is given here; in the data, active = GI50 up to about 1.1 µM and inactive = higher.
Columns and labels:
Assay in all cases: NCI-60 cell line screen, 48 h
[1] = test system: A549
[2] = test system: ACHN
[3] = test system: CAKI-1
[4] = test system: COLO 205
[5] = test system: DU-145
[6] = test system: HOP-62
[7] = test system: HOP-92
[8] = test system: Hs-578T
[9] = test system: IGROV-1
[10] = test system: KM12
[11] = test system: MDA-MB-231
[12] = test system: NCI-H226
[13] = test system: NCI/ADR-RES
[14] = test system: OVCAR-3
[15] = test system: OVCAR-5
[16] = test system: RXF 393
[17] = test system: SF-539
[18] = test system: SN12C
[19] = test system: TK-10
[20] = test system: UO-31

Measured: GI50

C=C1C2CC3CCC2C(OC(=O)c2ccccc2C(=O)O)C13 (stereo not given)
inactive: [1] > 100 µM | [2] > 100 µM | [3] > 100 µM | [4] > 100 µM | [5] > 100 µM | [6] > 100 µM | [7] > 100 µM | [8] > 100 µM | [9] > 100 µM | [10] > 100 µM | [11] > 100 µM | [12] > 100 µM | [13] > 100 µM | [14] 95.9 µM | [15] > 100 µM | [16] > 100 µM | [17] > 100 µM | [18] > 100 µM | [19] > 100 µM | [20] > 100 µM
